Nine compounds from patent publication US12421252B2, “Spiro (isobenzofuranazetidine) compounds for the treatment of autoimmune disease” (Hoffmann-La Roche Inc., priority 2020, dated 2025) can be followed below.

For this experiment, the target named is T1, human TLR7 (Homo sapiens, UniProt Q9NYK1).
T1 sequence (Q9NYK1 27-1049): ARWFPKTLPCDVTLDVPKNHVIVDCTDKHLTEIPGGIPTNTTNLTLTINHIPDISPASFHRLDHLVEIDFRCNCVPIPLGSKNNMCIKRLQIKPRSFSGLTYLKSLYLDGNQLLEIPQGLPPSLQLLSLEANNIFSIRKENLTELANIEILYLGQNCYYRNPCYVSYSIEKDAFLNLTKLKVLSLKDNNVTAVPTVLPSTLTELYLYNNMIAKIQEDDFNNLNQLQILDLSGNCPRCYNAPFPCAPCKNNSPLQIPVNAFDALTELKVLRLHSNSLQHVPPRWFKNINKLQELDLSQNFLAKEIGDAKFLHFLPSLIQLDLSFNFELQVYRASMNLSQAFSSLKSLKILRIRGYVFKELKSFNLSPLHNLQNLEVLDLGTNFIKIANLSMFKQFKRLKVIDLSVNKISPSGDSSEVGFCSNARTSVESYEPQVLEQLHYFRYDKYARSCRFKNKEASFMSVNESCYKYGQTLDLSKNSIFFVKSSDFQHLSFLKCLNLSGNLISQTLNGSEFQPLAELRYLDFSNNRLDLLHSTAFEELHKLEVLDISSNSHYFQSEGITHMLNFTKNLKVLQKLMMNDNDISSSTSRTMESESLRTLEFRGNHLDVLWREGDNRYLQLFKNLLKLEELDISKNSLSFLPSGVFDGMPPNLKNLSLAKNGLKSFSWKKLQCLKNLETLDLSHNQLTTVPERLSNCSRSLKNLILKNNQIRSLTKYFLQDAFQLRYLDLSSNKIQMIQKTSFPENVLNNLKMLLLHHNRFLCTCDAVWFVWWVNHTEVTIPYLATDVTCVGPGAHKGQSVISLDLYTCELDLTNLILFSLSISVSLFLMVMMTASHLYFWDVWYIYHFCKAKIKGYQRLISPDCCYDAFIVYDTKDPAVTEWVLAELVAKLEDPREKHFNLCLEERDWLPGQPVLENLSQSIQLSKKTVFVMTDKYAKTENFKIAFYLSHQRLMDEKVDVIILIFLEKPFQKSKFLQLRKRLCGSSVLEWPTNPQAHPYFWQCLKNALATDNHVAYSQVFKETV
Description: HEK293-Blue-hTLR-7 cells assay. In kind it is cell-based. The note with it: HEK293-Blue-hTLR7 cells, R848 stimulation, 20 hrs, SEAP reporter; read-out: HEK/hTLR7 IC50. From the text: HEK293-Blue-hTLR-7 cells assay:
A stable HEK293-Blue-hTLR-7 cell line was purchased from InvivoGen (Cat. #: hkb-htlr7, San Diego, California, USA). These cells were originally designed for studying the stimulation of human TLR7 by monitoring the activation of NF-κB. A SEAP (secreted embryonic alkaline phosphatase) reporter gene was placed under the control of the IFN-β minimal promoter fused to five NF-κB and AP-1-binding sites. The SEAP was induced by activating NF-κB and AP-1 via stimulating HEK-Blue hTLR7 cells with TLR7 ligands. Therefore the reporter expression was declined by TLR7 antagonist under the stimulation of a ligand, such as R848 (Resiquimod), for incubation of 20 hrs. The cell culture supernatant SEAP reporter activity was determined using QUANTI-Blue™ kit (Cat. #: rep-qb1, Invivogen, San Diego, Ca, USA) at a wavelength of 640 nm, a detection medium that turns purple or blue in the presence of alkaline phosphatase.
HEK293-Blue-hTLR7 cells were incubated at a density of 250,000˜450,000 cells/mL in a volume of 170 μL in a 96-well plate in Dulbecco's Modified Eagle's medium (DMEM) containing 4.5 g/L glucose, 50 U/mL penicillin, […], […], 2 mM L-glutamine, 10% (v/v) heat-inactivated fetal bovine serum with addition of 20 μL test compound in a serial dilution in the presence of final DMSO at 1% and 10 μL of 20 uM R848 in above DMEM, perform incubation under 37° C. in a CO2 incubator for 20 hrs. Then 20 μL of the supernatant from each well was incubated with 180 μL Quanti-blue substrate solution at 37° C. for 2 hrs and the absorbance was read at 620˜655 nm using a spectrophotometer. The signaling pathway that TLR7 activation leads to downstream NF-κB activation has been widely accepted, and therefore similar reporter assay was modified for evaluating TLR7 antagonist.
On to `[2H]c1ccc2c(N3C[C@H](CN4CC5(C4)OCc4cc(N6CC(C)(N)C6)cnc45)O[C@H](C)C3)ccc(C#N)c2n1` [Example 21, 5-[(2S,6R)-2-[[3-(3-amino-3-methyl-azetidin-1-yl)spiro[5H-furo[3,4-b]pyridine-7,3′-azetidine]-1′-yl]methyl]-6-methyl-morpholin-4-yl]-2-deuterio-quinoline-8-carbonitrile], for which the IC50 is 7 nM.
Under `C[C@@H]1CN(c2ccc(C#N)n3ncc(F)c23)C[C@H](CN2CC3(C2)OCc2cc(N4CC5(CN(C)C5)C4)cnc23)O1` [Example 22, 3-fluoro-4-[(2R,6S)-2-methyl-6-[[3-(6-methyl-2,6-diazaspiro[3.3]heptan-2-yl)spiro[5H-furo[3,4-b]pyridine-7,3′-azetidine]-1′-yl]methyl]morpholin-4-yl]pyrazolo[1,5-a]pyridine-7-carbonitrile] stands 9 nM; under `C[C@@H]1CN(c2ccc(C#N)n3ncc(F)c23)C[C@H](CN2CC3(C2)OCc2cc(N4CC(C)(N)C4)ncc23)O1` [Example 24, 4-[(2S,6R)-2-[[6-(3-amino-3-methyl-azetidin-1-yl)spiro[1H-furo[3,4-c]pyridine-3,3′-azetidine]-1′-yl]methyl]-6-methyl-morpholin-4-yl]-3-fluoro-pyrazolo[1,5-a]pyridine-7-carbonitrile], 16 nM; under `C[C@@H]1CN(c2ccc(C#N)n3nccc23)C[C@H](CN2CC3(C2)OCc2cc(N4CC(C)(N)C4)ncc23)O1` [Example 25, 4-[(2S,6R)-2-[[6-(3-amino-3-methyl-azetidin-1-yl)spiro[1H-furo[3,4-c]pyridine-3,3′-azetidine]-1′-yl]methyl]-6-methyl-morpholin-4-yl]pyrazolo[1,5-a]pyridine-7-carbonitrile], 23 nM.
Under `C[C@@H]1CN(c2ccc(C#N)n3nccc23)C[C@H](CN2CC3(C2)OCc2cc(N4CC(C)(N)C4)cnc23)O1` [Example 26, 4-[(2S,6R)-2-[[3-(3-amino-3-methyl-azetidin-1-yl)spiro[5H-furo[3,4-b]pyridine-7,3′-azetidine]-1′-yl]methyl]-6-methyl-morpholin-4-yl]pyrazolo[1,5-a]pyridine-7-carbonitrile] stands 24 nM.
Regarding `[2H]c1ccc2c(N3C[C@H](CN4CC5(C4)OCc4cc(N6C[C@H]7NCCO[C@@H]7C6)ncc45)O[C@H](C)C3)ccc(C#N)c2n1` [Example 28, 5-[(2S,6R)-2-[[6-[(4aR,7aR)-3,4,4a,5,7,7a-hexahydro-2H-pyrrolo[3,4-b][1,4]oxazin-6-yl]spiro[1H-furo[3,4-c]pyridine-3,3′-azetidine]-1′-yl]methyl]-6-methyl-morpholin-4-yl]-2-deuterio-quinoline-8-carbonitrile], the IC50 was determined as 7 nM.
On to `[2H]c1ccc2c(N3C[C@H](CN4CC5(C4)OCc4cc(N6C[C@@H](N)[C@H](OC)C6)cnc45)O[C@H](C)C3)ccc(C#N)c2n1` [Example 31, 5-[(2S,6R)-2-[[3-[(3R,4R)-3-amino-4-methoxy-pyrrolidin-1-yl]spiro[5H-furo[3,4-b]pyridine-7,3′-azetidine]-1′-yl]methyl]-6-methyl-morpholin-4-yl]-2-deuterio-quinoline-8-carbonitrile], for which the IC50 was 7 nM.
`[2H]c1ccc2c(N3C[C@H](CN4CC5(C4)OCc4cc(N6CC(N)C6)ncc45)O[C@H](C)C3)ccc(C#N)c2n1` [Example 32, 5-[(2S,6R)-2-[[6-(3-aminoazetidin-1-yl)spiro[1H-furo[3,4-c]pyridine-3,3′-azetidine]-1′-yl]methyl]-6-methyl-morpholin-4-yl]-2-deuterio-quinoline-8-carbonitrile]: the IC50 came to 4 nM.
As for `C[C@@H]1CN(c2ccc(C#N)n3ncc(F)c23)C[C@H](CN2CC3(C2)OCc2cc(N4CC(C)(N)C4)cnc23)O1` [Example 33, 4-[(2S,6R)-2-[[3-(3-amino-3-methyl-azetidin-1-yl)spiro[5H-furo[3,4-b]pyridine-7,3′-azetidine]-1′-yl]methyl]-6-methyl-morpholin-4-yl]-3-fluoro-pyrazolo[1,5-a]pyridine-7-carbonitrile], the figure is 13 nM.
